Assay results published in patent publication US7368255B2, “RUNX3 gene showing anti-tumor activity and use thereof” (priority 2001, dated 2008).
“Also recorded” adds a separate entry of the source.

Experiments:
[1] = tested on: RUNX3 gene expression; experiment: Reactivation of RUNX3 gene expression, RT-PCR; format: cell-based, human; details: AZA 300 nM, TSA 1 mM, alone or in combination, 3 days, NUGC3, MKN28, MKN74 cell lines
Experimental: To determine whether the DNA methylation observed in Example 5-1 is the direct cause of the inactivation of the RUNX3 gene, the influence of a DNA methyltransferase inhibitor and a histone deacetylase inhibitor on the reactivation of the RUNX3 gene expression was analyzed.
The NUGC3, MKN28, and MKN74 cell lines (selected randomly from the cell lines showing no RUNX3 gene expression by RT-PCR analysis) were treated with […] (AZA, 300 nM), which inhibits DNA methyltransferase, and trichostatin A (TSA, […]), which inhibits histone deacetylase, alone or in combination. After 3 days of the treatment, total RNA was isolated from each cell line in accordance with the same standardized single-step guanidium method used in Example 4-1, and then analyzed for the expression of the RUNX3 gene by RT-PCR using the PS-N primer pair of SEQ. ID. NOS: 4 and 5.

[2] = tested on: SNU16-Rx3-AS-c11 cells; experiment: TGF-β1-induced cell death, viable cell counts; format: cell-based; details: TGF-β1 1 ng/ml; SNU16-Rx3-AS-c11 cells (antisense RUNX3)
[3] = tested on: SNU16 cells; experiment: TGF-β1-induced cell death, viable cell counts; format: cell-based; details: TGF-β1 1 ng/ml
[4] = tested on: SNU16 cells; experiment: Apoptotic DNA bands by genomic DNA electrophoresis after TGF-β1; format: cell-based; details: TGF-β1 1 ng/ml, 6 hours
Experimental: (§1) Cells dying through the programmed cell death pathway reveal a distinct pattern of DNA bands when electrophoresed in an agarose gel. After being treated with 1 ng/ml TGF-β1 for 6 hours, the control-SNU16, SNU16-Rx3-AS-c11, and SNU16-Rx3-AS-c12 strains were lysed to isolate genomic DNAs according to a standard method (Sambrook et al., 1988, Molecular Cloning: a laboratory manual, 2nd Ed. Cold Spring Harbor Laboratory, Cold Spring Harbor, N.Y., USA). 0.2 μg of each of the genomic DNA preparations was electrophoresed on a 1.5% agarose gel and visualized with ethidium bromide under UV light.

[5] = tested on: SNU16-Rx3-AS-c11 cells; experiment: as above; format: cell-based; details: TGF-β1 1 ng/ml, 6 hours
Experimental: as §1

[6] = tested on: SNU16-Rx3-AS-c12 cells; experiment: as above; format: cell-based; details: TGF-β1 1 ng/ml, 6 hours
Experimental: as §1

[7] = tested on: SNU16-Rx3-AS-c12 cells; experiment: TGF-β1-induced cell death, viable cell counts; format: cell-based; details: TGF-β1 1 ng/ml; SNU16-Rx3-AS-c12 cells (antisense RUNX3)

**Q.** What does the source list for `Nc1ncn([C@H]2C[C@H](O)[C@@H](CO)O2)c(=O)n1`?
**A.** expression of the RUNX3 gene (RT-PCR) [1]: the expression of the RUNX3 gene was induced; expression of the RUNX3 gene (RT-PCR) ([1]; listed as 5-aza-2-deoxycytidine): allows the RUNX3 gene to be expressed

**Q.** For “TGF-β1: TGF-β1 cytokine used at 1 ng/ml to induce cell death in SNU16 cells”, which “cell death after TGF-β1 treatment” value [2] is on record?
**A.** did not kill

**Q.** What about the “time within which SNU16 cells were killed” value [3] of the same molecule?
**A.** ≤ 2 days

**Q.** What about the “apoptotic DNA bands” value [4] of the same molecule?
**A.** apoptotic DNA bands were formed; also recorded: These bands are apparent

**Q.** And the “apoptotic DNA bands” value [5]?
**A.** no apoptotic bands were observed

**Q.** What about the “apoptotic DNA bands” value [6] of the same molecule?
**A.** no apoptotic bands were observed

**Q.** What about the “cell death after TGF-β1 treatment” value [7] of the same molecule?
**A.** did not kill

**Q.** For `CC(/C=C/C(=O)NO)=C\[C@@H](C)C(=O)c1ccc(N(C)C)cc1` [trichostatin A], which “expression of the RUNX3 gene (RT-PCR)” value [1] is on record?
**A.** allows the RUNX3 gene to be expressed; also recorded: the expression of the RUNX3 gene was induced
